Laboratory results as given in ChEMBL document CHEMBL1201862, “PubChem BioAssay data set” (2004).
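Interpolation was linear, between the two tested concentrations surrounding the appropriate level; five concentrations were tested over 48 hours in 96-well plates. Here, GI50 denotes the concentration required for 50% inhibition of growth.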 Activity calls are given as the source filed them. Rule as the data show it: active = GI50 up to about 1.1 µM and inactive = higher.

Tests used:
Assay in all cases: growth of human tumour cells (NCI), 48 h
[1] = system: MDA-N
[2] = system: SK-MEL-5
[3] = system: HOP-62
[4] = system: TK-10
[5] = system: NCI-H522
[6] = system: IGROV-1
[7] = system: A549
[8] = system: DU-145
[9] = system: SNB-19
[10] = system: HCT-116
[11] = system: HCC 2998
[12] = system: KM12
[13] = system: RPMI-8226
[14] = system: T47D
[15] = system: MDA-MB-435
[16] = system: SK-MEL-28
[17] = system: RXF 393
[18] = system: UACC-62
[19] = system: OVCAR-3
[20] = system: MOLT-4
[21] = system: PC-3
[22] = system: K562
[23] = system: Hs-578T
[24] = system: EKVX
[25] = system: U-251
[26] = system: OVCAR-8
[27] = system: NCI/ADR-RES
[28] = system: SF-295
[29] = system: MCF7
[30] = system: SK-MEL-2
[31] = system: LOX IMVI
[32] = system: SF-539
[33] = system: OVCAR-4
[34] = system: SK-OV-3
[35] = system: ACHN
[36] = system: SW-620
[37] = system: CCRF-CEM
[38] = system: NCI-H226
[39] = system: COLO 205
[40] = system: 786-0
[41] = system: OVCAR-5
[42] = system: HL-60
[43] = system: NCI-H23
[44] = system: MDA-MB-231
[45] = system: NCI-H460
[46] = system: SF-268
[47] = system: UACC-257
[48] = system: Malme-3M
[49] = system: SNB-75
[50] = system: HCT-15
[51] = system: M14
[52] = system: BT-549
[53] = system: HT-29
[54] = system: SN12C
[55] = system: CAKI-1
[56] = system: A498
[57] = system: HOP-92

O=C(O)CC(O)(C(=O)O)C(O)C(=O)O (stereo unspecified) was tested, and the GI50 [1] was 617 µM (inactive), the GI50 [2] was 247 µM (inactive) and the GI50 [3] was > 1000 µM (inactive). For the same molecule, the GI50 [4] was > 1000 µM (inactive), the GI50 [5] was > 1000 µM (inactive) and the GI50 [6] was > 1000 µM (inactive). The GI50 [7] was > 1000 µM (inactive), the GI50 [8] was > 1000 µM (inactive) and the GI50 [9] was > 1000 µM (inactive). The GI50 [10] was > 1000 µM (inactive), the GI50 [11] was > 1000 µM (inactive) and the GI50 [12] was > 1000 µM (inactive). For the same molecule, the GI50 [13] was 787 µM (inactive), the GI50 [14] was > 1000 µM (inactive) and the GI50 [15] was 826 µM (inactive). For the same molecule, the GI50 [16] was > 1000 µM (inactive), the GI50 [17] was > 1000 µM (inactive) and the GI50 [18] was 933 µM (inactive). For the same molecule, the GI50 [19] was > 1000 µM (inactive), the GI50 [20] was > 1000 µM (inactive) and the GI50 [21] was > 1000 µM (inactive). The GI50 [22] was > 1000 µM (inactive), the GI50 [23] was 119 µM (inactive) and the GI50 [24] was > 1000 µM (inactive). For the same molecule, the GI50 [25] was > 1000 µM (inactive), the GI50 [26] was > 1000 µM (inactive) and the GI50 [27] was > 1000 µM (inactive). For the same molecule, the GI50 [28] was > 1000 µM (inactive), the GI50 [29] was > 1000 µM (inactive) and the GI50 [30] was > 1000 µM (inactive). The GI50 [31] was 440 µM (inactive), the GI50 [32] was > 1000 µM (inactive) and the GI50 [33] was > 1000 µM (inactive). The GI50 [34] was > 1000 µM (inactive), the GI50 [35] was > 1000 µM (inactive) and the GI50 [36] was > 1000 µM (inactive). The GI50 [37] was > 1000 µM (inactive), the GI50 [38] was > 1000 µM (inactive) and the GI50 [39] was > 1000 µM (inactive). The GI50 [40] was > 1000 µM (inactive), the GI50 [41] was > 1000 µM (inactive) and the GI50 [42] was > 1000 µM (inactive). For the same molecule, the GI50 [43] was > 1000 µM (inactive), the GI50 [44] was > 1000 µM (inactive) and the GI50 [45] was > 1000 µM (inactive). The GI50 [46] was > 1000 µM (inactive), the GI50 [47] was > 1000 µM (inactive) and the GI50 [48] was > 1000 µM (inactive). For the same molecule, the GI50 [49] was > 1000 µM (inactive), the GI50 [50] was over 1000 µM and the GI50 [51] was > 1000 µM (inactive). For the same molecule, the GI50 [52] was > 1000 µM (inactive), the GI50 [53] was > 1000 µM (inactive) and the GI50 [54] was > 1000 µM (inactive). The GI50 [55] was > 1000 µM (inactive).
In the case of COC(=O)[C@@H](OC(C)=O)[C@@H](OC(C)=O)c1nnc2ccc(Cl)nn12, the GI50 [1] is reported as > 100 µM (inactive), the GI50 [2] is reported as > 100 µM (inactive) and the GI50 [3] is reported as > 100 µM (inactive). For the same molecule, the GI50 [4] was > 100 µM (inactive), the GI50 [5] was 22.2 µM (inactive) and the GI50 [6] was 85.3 µM (inactive). The GI50 [7] was > 100 µM (inactive), the GI50 [8] was > 100 µM (inactive) and the GI50 [9] was > 100 µM (inactive). For the same molecule, the GI50 [10] was > 100 µM (inactive), the GI50 [11] was 36.2 µM (inactive) and the GI50 [12] was > 100 µM (inactive). The GI50 [13] was 62.2 µM (inactive), the GI50 [14] was > 100 µM (inactive) and the GI50 [15] was > 100 µM (inactive). For the same molecule, the GI50 [16] was 97.7 µM (inactive), the GI50 [17] was > 100 µM (inactive) and the GI50 [18] was > 100 µM (inactive). The GI50 [19] was > 100 µM (inactive), the GI50 [20] was > 100 µM (inactive) and the GI50 [21] was > 100 µM (inactive). The GI50 [56] was > 100 µM (inactive), the GI50 [23] was > 100 µM (inactive) and the GI50 [24] was > 100 µM (inactive). The GI50 [25] was > 100 µM (inactive), the GI50 [26] was > 100 µM (inactive) and the GI50 [27] was > 100 µM (inactive). The GI50 [28] was > 100 µM (inactive), the GI50 [29] was > 100 µM (inactive) and the GI50 [30] was > 100 µM (inactive). For the same molecule, the GI50 [31] was > 100 µM (inactive), the GI50 [32] was > 100 µM (inactive) and the GI50 [33] was > 100 µM (inactive). For the same molecule, the GI50 [34] was > 100 µM (inactive), the GI50 [35] was > 100 µM (inactive) and the GI50 [36] was > 100 µM (inactive). For the same molecule, the GI50 [37] was > 100 µM (inactive), the GI50 [39] was > 100 µM (inactive) and the GI50 [40] was > 100 µM (inactive). For the same molecule, the GI50 [41] was > 100 µM (inactive), the GI50 [42] was > 100 µM (inactive) and the GI50 [43] was > 100 µM (inactive). The GI50 [44] was > 100 µM (inactive), the GI50 [45] was > 100 µM (inactive) and the GI50 [46] was > 100 µM (inactive). The GI50 [47] was 87.9 µM (inactive), the GI50 [48] was > 100 µM (inactive) and the GI50 [50] was over 100 µM. For the same molecule, the GI50 [51] was > 100 µM (inactive), the GI50 [52] was > 100 µM (inactive) and the GI50 [53] was > 100 µM (inactive). The GI50 [54] was > 100 µM (inactive) and the GI50 [55] was 92 µM (inactive).
In the case of Fc1ccc(Nc2nnc(-c3ccccn3)s2)cc1, the GI50 [1] is reported as > 100 µM (inactive), the GI50 [2] is reported as > 100 µM (inactive) and the GI50 [3] is reported as > 100 µM (inactive). The GI50 [4] was > 100 µM (inactive), the GI50 [5] was > 100 µM (inactive) and the GI50 [6] was > 100 µM (inactive). For the same molecule, the GI50 [7] was > 100 µM (inactive), the GI50 [8] was > 100 µM (inactive) and the GI50 [9] was > 100 µM (inactive). The GI50 [10] was > 100 µM (inactive), the GI50 [12] was > 100 µM (inactive) and the GI50 [13] was > 100 µM (inactive). The GI50 [14] was 5.22 µM (inactive), the GI50 [15] was > 100 µM (inactive) and the GI50 [16] was > 100 µM (inactive). For the same molecule, the GI50 [17] was > 100 µM (inactive), the GI50 [18] was > 100 µM (inactive) and the GI50 [19] was > 100 µM (inactive). The GI50 [20] was > 100 µM (inactive), the GI50 [21] was > 100 µM (inactive) and the GI50 [56] was > 100 µM (inactive). For the same molecule, the GI50 [23] was > 100 µM (inactive), the GI50 [24] was > 100 µM (inactive) and the GI50 [25] was > 100 µM (inactive). For the same molecule, the GI50 [26] was > 100 µM (inactive), the GI50 [27] was > 100 µM (inactive) and the GI50 [28] was > 100 µM (inactive). The GI50 [29] was 3.47 µM (inactive), the GI50 [30] was > 100 µM (inactive) and the GI50 [31] was > 100 µM (inactive). For the same molecule, the GI50 [32] was > 100 µM (inactive), the GI50 [33] was > 100 µM (inactive) and the GI50 [34] was > 100 µM (inactive). The GI50 [35] was > 100 µM (inactive), the GI50 [36] was > 100 µM (inactive) and the GI50 [37] was > 100 µM (inactive). For the same molecule, the GI50 [39] was > 100 µM (inactive), the GI50 [40] was > 100 µM (inactive) and the GI50 [41] was > 100 µM (inactive). The GI50 [42] was > 100 µM (inactive), the GI50 [43] was > 100 µM (inactive) and the GI50 [44] was > 100 µM (inactive). For the same molecule, the GI50 [45] was > 100 µM (inactive), the GI50 [46] was > 100 µM (inactive) and the GI50 [47] was > 100 µM (inactive). For the same molecule, the GI50 [48] was > 100 µM (inactive), the GI50 [50] was over 100 µM and the GI50 [51] was > 100 µM (inactive). For the same molecule, the GI50 [52] was > 100 µM (inactive), the GI50 [53] was > 100 µM (inactive) and the GI50 [54] was > 100 µM (inactive). The GI50 [57] was > 100 µM (inactive) and the GI50 [55] was > 100 µM (inactive).
